Results as given in ChEMBL document CHEMBL5154884, “Discovery of a Novel Src Homology-2 Domain Containing Protein Tyrosine Phosphatase-2 (SHP2) and Cyclin-Dependent Kinase 4 (CDK4) Dual Inhibitor for the Treatment of Triple-Negative Breast Cancer” (J Med Chem, 2022).
Blank lines part the entries; values can stand above or below the molecule they belong to.

Tests used:
[1] = target: CDK4/Cyclin D3 (Homo sapiens, UniProt P11802); experiment: Inhibition of recombinant N-terminal GST/His6-fusion tagged human CDK4/Cyclin D3 expressed in Sf9 insect cells using 5-FAM-IPTSPITTTYFFFKKK as substrate preincubated for 10 mins followed by substrate addition and incubated for 3 hrs in presence of ATP by caliper mobility shift analysis
Sequence of CDK4/Cyclin D3 (P11802 whole entry, the tested form may be a part): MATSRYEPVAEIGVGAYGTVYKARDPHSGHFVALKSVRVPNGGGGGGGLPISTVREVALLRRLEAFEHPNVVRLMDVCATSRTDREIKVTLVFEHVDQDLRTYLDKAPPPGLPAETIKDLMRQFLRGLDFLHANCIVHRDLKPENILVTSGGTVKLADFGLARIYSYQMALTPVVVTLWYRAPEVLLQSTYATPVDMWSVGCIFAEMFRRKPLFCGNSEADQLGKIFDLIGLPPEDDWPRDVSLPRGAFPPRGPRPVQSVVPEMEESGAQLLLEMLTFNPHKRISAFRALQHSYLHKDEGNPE
Sequence of CDK4/Cyclin D3 (P30281 whole entry, further chain, the tested form may be a part): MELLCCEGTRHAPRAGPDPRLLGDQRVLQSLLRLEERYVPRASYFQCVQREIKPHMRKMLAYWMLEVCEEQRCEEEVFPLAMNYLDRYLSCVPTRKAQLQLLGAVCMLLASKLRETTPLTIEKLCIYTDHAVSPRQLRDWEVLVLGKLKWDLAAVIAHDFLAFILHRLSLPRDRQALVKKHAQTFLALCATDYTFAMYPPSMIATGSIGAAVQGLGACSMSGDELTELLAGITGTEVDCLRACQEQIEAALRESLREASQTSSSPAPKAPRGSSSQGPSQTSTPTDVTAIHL

[2] = target: T1, Tyrosine-protein phosphatase non-receptor type 11 (Homo sapiens, UniProt Q06124); experiment: Inhibition of SHP2 (unknown origin) using DiFMUP as substrate incubated for 60 mins followed by substrate addition for 30 mins by microplate reader method
T1 sequence (Q06124 whole entry): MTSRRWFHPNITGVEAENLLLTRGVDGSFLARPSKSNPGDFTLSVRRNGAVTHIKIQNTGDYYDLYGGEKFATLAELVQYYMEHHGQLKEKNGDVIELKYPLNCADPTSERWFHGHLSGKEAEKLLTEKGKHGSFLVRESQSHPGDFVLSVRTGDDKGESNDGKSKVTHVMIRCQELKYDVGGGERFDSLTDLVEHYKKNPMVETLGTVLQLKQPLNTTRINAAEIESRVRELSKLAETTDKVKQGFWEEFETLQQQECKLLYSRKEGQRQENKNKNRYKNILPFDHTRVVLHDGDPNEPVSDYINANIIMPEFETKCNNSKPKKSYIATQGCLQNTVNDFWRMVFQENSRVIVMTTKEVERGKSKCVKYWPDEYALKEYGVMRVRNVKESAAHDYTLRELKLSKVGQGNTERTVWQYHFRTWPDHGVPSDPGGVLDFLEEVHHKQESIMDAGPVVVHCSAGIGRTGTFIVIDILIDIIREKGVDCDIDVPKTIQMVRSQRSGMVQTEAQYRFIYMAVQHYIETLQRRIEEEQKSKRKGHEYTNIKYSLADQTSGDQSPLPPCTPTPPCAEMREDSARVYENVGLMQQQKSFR

[3] = system: MDA-MB-231; experiment: Induction of cell cycle arrest in human MDA-MB-231 cells assessed as accumulation of cells in G0/G1 phase at 3 uM incubated for 48 hrs by RNase/propidium iodide staining based flow cytometry analysis (reference value: 26.2%); assay type: functional
[4] = system: MDA-MB-231; experiment: Antiproliferative activity against human MDA-MB-231 cells assessed as inhibition of cell growth incubated for 48 hrs by MTT assay; assay type: functional, cell-based
[5] = system: MDA-MB-231; experiment: Induction of apoptosis in human MDA-MB-231 cells assessed as early apoptotic cells at 3 uM measured after 48 hrs by Annexin V-FITC/PI staining based flow cytometric analysis (reference value: 0.32%); assay type: functional
[6] = system: MDA-MB-231; experiment: Induction of cell cycle arrest in human MDA-MB-231 cells assessed as accumulation of cells in G2/M phase at 3 uM incubated for 48 hrs by RNase/propidium iodide staining based flow cytometry analysis (reference value: 2.7%); assay type: functional
[7] = system: MDA-MB-231; experiment: Induction of apoptosis in human MDA-MB-231 cells assessed as viable cells at 3 uM measured after 48 hrs by Annexin V-FITC/PI staining based flow cytometric analysis (reference value: 98.04%); assay type: functional; conditions: read-out: Activity
[8] = system: MDA-MB-468; experiment: Antiproliferative activity against human MDA-MB-468 cells assessed as inhibition of cell growth incubated for 48 hrs by MTT assay; assay type: functional, cell-based
[9] = system: MDA-MB-231; experiment: Induction of cell cycle arrest in human MDA-MB-231 cells assessed as accumulation of cells in S phase at 3 uM incubated for 48 hrs by RNase/propidium iodide staining based flow cytometry analysis (reference value: […]); assay type: functional
[10] = system: EMT6; experiment: Antitumor activity against mouse EMT6 cells implanted in BALB/c mouse syngenic model assessed as tumor growth inhibition at 40 mg/kg, po qd and measured after 18 days relative to control; assay type: functional; conditions: EMT6, 432 h, time 18 day, read-out: TGI
[11] = system: MDA-MB-231; experiment: Induction of apoptosis in human MDA-MB-231 cells assessed as late apoptotic cells at 3 uM measured after 48 hrs by Annexin V-FITC/PI staining based flow cytometric analysis (reference value: 1.06%); assay type: functional
[12] = system: MDA-MB-231; experiment: Induction of apoptosis in human MDA-MB-231 cells assessed as necrotic cells at 3 uM measured after 48 hrs by Annexin V-FITC/PI staining based flow cytometric analysis (reference value: 0.58%); assay type: functional
[13] = system: EMT6; experiment: Antiproliferative activity against mouse EMT6 cells assessed as inhibition of cell growth incubated for 48 hrs by MTT assay; assay type: functional, cell-based
[14] = system: MDA-MB-231; experiment: Induction of apoptosis in human MDA-MB-231 cells assessed as late apoptotic cells at 3 uM incubated for 48 hrs in presence of abemaciclib by Annexin V-FITC/PI staining based flow cytometric analysis (reference value: 1.06%); assay type: functional
[15] = system: MDA-MB-231
[16] = system: EMT6
[17] = system: MDA-MB-231; experiment: Induction of apoptosis in human MDA-MB-231 cells assessed as early apoptotic cells at 3 uM incubated for 48 hrs in presence of abemaciclib by Annexin V-FITC/PI staining based flow cytometric analysis (reference value: 0.32%); assay type: functional
[18] = system: MDA-MB-231; experiment: Induction of cell cycle arrest in human MDA-MB-231 cells assessed as accumulation of cells in S phase at 3 uM incubated for 48 hrs in presence of abemaciclib by RNase/propidium iodide staining based flow cytometry analysis (reference value: […]); assay type: functional
[19] = system: MDA-MB-231; experiment: Induction of apoptosis in human MDA-MB-231 cells assessed as necrotic cells at 3 uM incubated for 48 hrs in presence of abemaciclib by Annexin V-FITC/PI staining based flow cytometric analysis (reference value: 0.58%); assay type: functional
[20] = system: MDA-MB-231; experiment: Induction of cell cycle arrest in human MDA-MB-231 cells assessed as accumulation of cells in G0/G1 phase at 3 uM incubated for 48 hrs in presence of abemaciclib by RNase/propidium iodide staining based flow cytometry analysis (reference value: 26.2%); assay type: functional
[21] = system: MDA-MB-468
[22] = system: EMT6; experiment: Antitumor activity in mouse EMT6 cells implanted in BALB/c syngenic mouse model assessed as tumor growth inhibition at 40 mg/kg, po qd in presence of abemaciclib measured after 18 days relative to control; assay type: functional; conditions: EMT6, 432 h, time 18 day, read-out: TGI
[23] = system: MDA-MB-231; experiment: Induction of apoptosis in human MDA-MB-231 cells assessed as viable cells at 3 uM incubated for 48 hrs in presence of abemaciclib by Annexin V-FITC/PI staining based flow cytometric analysis (reference value: 98.04%); assay type: functional; conditions: read-out: Activity
[24] = system: MDA-MB-231; experiment: Induction of cell cycle arrest in human MDA-MB-231 cells assessed as accumulation of cells in G2/M phase at 3 uM incubated for 48 hrs in presence of abemaciclib by RNase/propidium iodide staining based flow cytometry analysis (reference value: 2.7%); assay type: functional

- IC50 [1]: 212 nM
- IC50 [2]: 618 nM
Compound: Cc1nc2c(F)cc(-c3nc(Nc4ccc(Cl)c(Sc5cnc(N6CCC7(CC6)CO[C@@H](C)[C@H]7N)cn5)n4)ncc3F)cc2n1C(C)C

- IC50 [1]: 445 nM
- IC50 [2]: 673 nM
Compound: Cc1nc2c(F)cc(-c3nc(Nc4ccc(Sc5cnc(N6CCC7(CC6)Cc6ccccc6[C@H]7N)cn5)c(Cl)n4)ncc3F)cc2n1C(C)C

- IC50 [1]: 443 nM
- IC50 [2]: 31.3 nM
Compound: CN(C)C(=O)c1cc2cnc(Nc3nccc(Sc4cnc(N5CCC(C)(N)CC5)cn4)c3Cl)nc2n1C1CCCC1

- IC50 [1]: > 1000 nM
- IC50 [2]: > 1000 nM
Compound: CN(C)C(=O)c1cc2cnc(Sc3cnc(N4CCC(C)(N)CC4)cn3)nc2n1C1CCCC1

- IC50 [1]: 139 nM
Compound: Cc1nc2c(F)cc(-c3nc(Nc4ccc(Sc5cnc(N6CCC7(CC6)CO[C@@H](C)[C@H]7N)cn5)c(Cl)n4)ncc3F)cc2n1C(C)C

- IC50 [1]: 8.8 nM
Compound: Cc1nc2c(F)cc(-c3nc(Nc4cc(Cl)c(Sc5cnc(N6CCC7(CC6)CO[C@@H](C)[C@H]7N)cn5)cn4)ncc3F)cc2n1C(C)C

- IC50 [1]: 8.1 nM
Compound: CN(C)C(=O)c1cc2cnc(Nc3ccc(Sc4cnc(N5CCC(C)(N)CC5)cn4)cn3)nc2n1C1CCCC1

- IC50 [1]: > 1000 nM
- IC50 [2]: 3.2 nM
Compound: CN(C)C(=O)c1cc2cnc(Nc3nccc(Sc4cnc(N5CCC6(CC5)Cc5ccccc5[C@H]6N)cn4)c3Cl)nc2n1C1CCCC1

- IC50 [1]: > 1000 nM
- IC50 [2]: 52.1 nM
Compound: CN(C)C(=O)c1cc2cnc(Nc3ccc(Sc4cnc(N5CCC6(CC5)Cc5ccccc5[C@H]6N)cn4)c(Cl)c3)nc2n1C1CCCC1

- IC50 [1]: 51.1 nM
Compound: CN(C)C(=O)c1cc2cnc(Nc3ccc(Sc4cnc(N5CCC(C)(N)CC5)cn4)c(Cl)n3)nc2n1C1CCCC1

- IC50 [1]: 519 nM
- IC50 [2]: 34.1 nM
Compound: CN(C)C(=O)c1cc2cnc(Nc3ccc(Sc4cnc(N5CCC6(CC5)Cc5ccccc5[C@H]6N)cn4)c(Cl)n3)nc2n1C1CCCC1

The remaining lines, values behind:

Compound: Cc1nc2c(F)cc(-c3nc(Nc4cc(Sc5cnc(N6CCC7(CC6)CO[C@@H](C)[C@H]7N)cn5)c(Cl)cn4)ncc3F)cc2n1C(C)C
- IC50 [1]: > 1000 nM

Compound: CCN1CCN(Cc2ccc(Nc3ncc(F)c(-c4cc(F)c5nc(C)n(C(C)C)c5c4)n3)nc2)CC1 [ABEMACICLIB]
- Activity [3]: 37.1%
- IC50 ([4]; Homo sapiens, MDA-MB-231, 48 h): > 20000 nM
- Activity [5]: 5.86%
- Activity [6]: 2.7%
- viability at 3 µM [7]: 86%
- IC50 ([8]; Homo sapiens, MDA-MB-468, 48 h): > 20000 nM
- Activity [9]: 60.2%
- inhibition in vivo at 40 mg/kg [10]: 35%
- Activity [11]: 6.73%
- Activity [12]: 1.42%
- IC50 ([13]; Mus musculus, EMT6, 48 h): 4180 nM

Compound: Cc1nc2c(F)cc(-c3nc(Nc4nccc(Sc5cnc(N6CCC7(CC6)Cc6ccccc6[C@H]7N)cn5)c4Cl)ncc3F)cc2n1C(C)C
- IC50 ([4]; Homo sapiens, MDA-MB-231, 48 h): 4440 nM
- IC50 ([8]; Homo sapiens, MDA-MB-468, 48 h): 3900 nM
- IC50 [1]: 95.9 nM
- IC50 [2]: 8.2 nM
- IC50 ([13]; Mus musculus, EMT6, 48 h): 1070 nM

Compound: Cc1nc2c(F)cc(-c3nc(Nc4cc(Sc5cnc(N6CCC7(CC6)CO[C@@H](C)[C@H]7N)cn5)ccn4)ncc3F)cc2n1C(C)C
- IC50 ([4]; Homo sapiens, MDA-MB-231, 48 h): 5130 nM
- IC50 ([8]; Homo sapiens, MDA-MB-468, 48 h): 9620 nM
- IC50 [1]: 16.1 nM
- IC50 [2]: 47.2 nM
- IC50 ([13]; Mus musculus, EMT6, 48 h): 1100 nM

Compound: Cc1nc2c(F)cc(-c3nc(Nc4cnc(Sc5cnc(N6CCC7(CC6)CO[C@@H](C)[C@H]7N)cn5)c(Cl)c4)ncc3F)cc2n1C(C)C
- IC50 [1]: 9.1 nM
- IC50 [2]: 205 nM

Compound: C[C@@H]1OCC2(CCN(c3cnc(Sc4ccnc(N)c4Cl)c(N)n3)CC2)[C@@H]1N [BATOPROTAFIB]
- Activity [3]: 40.7%
- IC50 ([4]; mda-mb-231): > 20000 nM
- Activity [5]: 7.32%
- Activity [6]: 2.6%
- viability at 3 µM [7]: 82.5%
- IC50 ([8]; mda-mb-468): > 20000 nM
- Activity [14]: 12.42%
- IC50 [15]: 12900 nM
- Activity [9]: 56.7%
- IC50 [16]: 2490 nM
- Activity [17]: 8.17%
- Activity [18]: 53.2%
- Activity [19]: 0.95%
- Activity [20]: 44.8%
- IC50 [21]: 3110 nM
- inhibition in vivo at 40 mg/kg [10]: 60%
- Activity [11]: 9.13%
- inhibition in vivo at 40 mg/kg [22]: 74%
- Activity [12]: 1.07%
- IC50 ([13]; emt6): 7030 nM
- viability at 3 µM [23]: 78.5%
- Activity [24]: 2%

Compound: Cc1nc2c(F)cc(-c3nc(Nc4cccc(Sc5cnc(N6CCC7(CC6)CO[C@@H](C)[C@H]7N)cn5)c4Cl)ncc3F)cc2n1C(C)C
- IC50 ([4]; Homo sapiens, MDA-MB-231, 48 h): 4550 nM
- IC50 ([8]; Homo sapiens, MDA-MB-468, 48 h): 9100 nM
- IC50 [1]: 6.7 nM
- IC50 [2]: 16.5 nM
- IC50 ([13]; Mus musculus, EMT6, 48 h): 580 nM

Compound: Cc1nc2c(F)cc(-c3nc(Nc4ccc(Sc5cnc(N6CCC7(CC6)CO[C@@H](C)[C@H]7N)cn5)c(Cl)c4)ncc3F)cc2n1C(C)C
- IC50 ([4]; Homo sapiens, MDA-MB-231, 48 h): 3240 nM
- IC50 ([8]; Homo sapiens, MDA-MB-468, 48 h): 10300 nM
- IC50 [1]: 7 nM
- IC50 ([13]; Mus musculus, EMT6, 48 h): 1660 nM
